# Data taken from patent publication US3984393A, “Aminoglycoside antibiotics” (The Upjohn Company, priority 1975, dated 1976).
# Like-named read-outs stand apart in the source and are kept apart here.
# Tests used:
# [1] = tested on: S. flexneri UC 143; assay: standard microplate test in BHI Agar (MIC), S. flexneri UC 143; assay type: cell-based; conditions: Shigella flexneri, UC143, 20 h, retest table, group (9), (11), (7α), neamine control, read-out: Minimum Inhibitory Concentration
# Description: (§1) Compounds were also tested in a standard microplate test in Brain Heart Infusion (BHI) Agar, at a concentration of 1 mg/ml. Incubation is at 37° and end points are read at 20 hours. Brain Heart Infusion Agar (supplied by Difco Laboratories, Detroit, Michigan, U.S.A.) has the following composition:
# (§2) Compounds (7β), (7α) and (9) were tested again along with compounds (11) and (14β) against a neamine control using the same conditions as given above.
# [2] = tested on: S. marcescens UC 131; assay: standard microplate test in BHI Agar (MIC), S. marcescens UC 131; assay type: cell-based; conditions: Serratia marcescens, UC131, 20 h; S. marcescens UC 131; retest table, group (9), (11), (7α), neamine control; read-out: Minimum Inhibitory Concentration
# Description: as §1, §2
# [3] = tested on: K. pneumoniae UC 58; assay: standard microplate test in BHI Agar (MIC), K. pneumoniae UC 58; assay type: cell-based; conditions: Klebsiella pneumoniae, UC58, 20 h
# Description: as §1, §2
# [4] = tested on: P. morgani UC 3186; assay: standard microplate test in BHI Agar (MIC), P. morgani UC 3186; assay type: cell-based; conditions: 20 h, read-out: Minimum Inhibitory Concentration, P. morgani UC 3186; retest table, group (9), (11), (7α), neamine control
# Description: as §1, §2
# [5] = tested on: B. cereus; assay: standard disc plate assay, 12.5 mm paper discs (zone of inhibition), B. cereus; assay type: cell-based, Bacillus cereus
# Description: (§3) The novel intermediates, disclosed herein, are useful to make novel aminoglycoside antibiotics. These novel aminoglycoside antibiotics are antibacterially active, and, thus, they can be used in various environments to eradicate or control sensitive bacteria. Following are in vitro antibacterial test results for representative compounds of the subject invention. The results were obtained with a standard disc plate assay using 12.5 mm paper discs.
# [6] = tested on: B. subtilis; assay: standard disc plate assay, 12.5 mm paper discs (zone of inhibition), B. subtilis; assay type: cell-based, Bacillus subtilis
# Description: as §3
# [7] = tested on: S. aureus UC 746; assay: standard microplate test in BHI Agar (MIC), S. aureus UC 746; assay type: cell-based; conditions: Staphylococcus aureus, UC746, 37°, 20 h, first table, read-out: Minimum Inhibitory Concentration
# Description: as §1, with “composition: […]” for “composition:”
# [8] = tested on: P. vulgaris UC 93; assay: standard microplate test in BHI Agar (MIC), P. vulgaris UC 93; assay type: cell-based; conditions: Proteus vulgaris, UC93, 20 h
# Description: as §1, §2
# [9] = tested on: P. rettgeri UC 339; assay: standard microplate test in BHI Agar (MIC), P. rettgeri UC 339; assay type: cell-based; conditions: Providencia rettgeri, UC339, 20 h; P. rettgeri UC 339; retest table, group (9), (11), (7α), neamine control; read-out: Minimum Inhibitory Concentration
# Description: as §1, §2
# [10] = tested on: St. faecalis UC 694; assay: standard microplate test in BHI Agar (MIC), St. faecalis UC 694; assay type: cell-based; conditions: Enterococcus faecalis, UC694, 20 h, read-out: Minimum Inhibitory Concentration
# Description: as §1, §2
# [11] = tested on: S. hemolyticus UC 152; assay: standard microplate test in BHI Agar (MIC), S. hemolyticus UC 152; assay type: cell-based, Streptococcus hemolyticus; conditions: Streptococcus pyogenes, UC152, 20 h
# Description: as §1, §2
# [12] = tested on: S. aureus UC 570; assay: standard microplate test in BHI Agar (MIC), S. aureus UC 570; assay type: cell-based; conditions: Staphylococcus aureus, UC570, 20 h, 37°, first table, read-out: Minimum Inhibitory Concentration
# Description: as §1, with “composition: […]” for “composition:”
# [13] = tested on: P. mirabilis A-63; assay: standard microplate test in BHI Agar (MIC), P. mirabilis A-63; assay type: cell-based; conditions: Proteus mirabilis, A63, 20 h; P. mirabilis A-63; retest table, group (9), (11), (7α), neamine control; read-out: Minimum Inhibitory Concentration
# Description: as §1, §2
# [14] = tested on: S. aureus UC 76; assay: standard microplate test in BHI Agar (MIC), S. aureus UC 76; assay type: cell-based, Staphylococcus aureus; conditions: Staphylococcus aureus, UC76, 20 h
# Description: as §1, §2
# [15] = tested on: Ps. aeruginosa UC 95; assay: standard microplate test in BHI Agar (MIC), Ps. aeruginosa UC 95; assay type: cell-based; conditions: Pseudomonas aeruginosa, UC95, 20 h, Ps. aeruginosa UC 95, read-out: Minimum Inhibitory Concentration
# Description: as §1, §2
# [16] = tested on: S. schottmuelleri UC 126; assay: standard microplate test in BHI Agar (MIC), S. schottmuelleri UC 126; assay type: cell-based; conditions: 20 h, BHI agar, 37°, first table, read-out: Minimum Inhibitory Concentration
# Description: as §1, §2
# [17] = tested on: D. pneumoniae UC 41; assay: standard microplate test in BHI Agar (MIC), D. pneumoniae UC 41; assay type: cell-based; conditions: Streptococcus pneumoniae, UC41, 20 h
# Description: as §1, §2
# [18] = tested on: E. coli UC 45; assay: standard microplate test in BHI Agar (MIC), E. coli UC 45; assay type: cell-based; conditions: Escherichia coli, UC45, 20 h
# Description: as §1, §2
# [19] = tested on: S. typhi TG-3; assay: standard microplate test in BHI Agar (MIC), S. typhi TG-3; assay type: cell-based; conditions: Salmonella enterica, 20 h, read-out: Minimum Inhibitory Concentration
# Description: as §1, §2
# [20] = conclusion in words from the above results
smiles,measurement,setting,value
"NC[C@H]1O[C@H](O[C@H]2[C@H](O)[C@@H](O[C@H]3O[C@H](CO)[C@@H](O)[C@H]3O)[C@H](N)C[C@@H]2N)[C@H](N)[C@@H](O)[C@@H]1O [(7α), 6-O-(α-D-Ribofuranosyl)neamine]",MIC,[1],125 mg/L
same,MIC,[2],250 mg/L
same,MIC,"[3]; read-out: Minimum Inhibitory Concentration, K. pneumoniae UC 58, BHI agar, 37°, 20 h, first table",62.5 mg/L
same,MIC,"[3]; K. pneumoniae UC 58, retest table, group (9), (11), (7α), neamine control, read-out: Minimum Inhibitory Concentration",7.8 mg/L
same,MIC,[4],125 mg/L
same,zone of inhibition at 5000 µg/mL,"[5]; Bacillus cereus, B. cereus, 5 mg/ml",25 mm
same,zone of inhibition at 10000 µg/mL,"[5]; Bacillus cereus, B. cereus, 10 mg/ml",32 mm
same,active against Bacillus cereus,[5]; [20],active
same,zone of inhibition at 5000 µg/mL,"[6]; Bacillus subtilis, B. subtilis, 5 mg/ml",32 mm
same,zone of inhibition at 10000 µg/mL,"[6]; Bacillus subtilis, B. subtilis, 10 mg/ml",34 mm
same,active against Bacillus subtilis,[6]; [20],active
same,MIC,[7],1000 mg/L
same,MIC,"[8]; P. vulgaris UC 93, BHI agar, 37°, 20 h, first table, read-out: Minimum Inhibitory Concentration",1000 mg/L
same,MIC,"[8]; read-out: Minimum Inhibitory Concentration, P. vulgaris UC 93, retest table, group (9), (11), (7α), neamine control",125 mg/L
same,MIC,[9],1000 mg/L
same,MIC,"[10]; S. faecalis UC 694, retest table, group (9), (11), (7α), neamine control",1000 mg/L
same,MIC,"[10]; St. faecalis UC 694, BHI agar, 37°, 20 h, first table",> 1000 mg/L
same,MIC,"[11]; read-out: Minimum Inhibitory Concentration, S. hemolyticus UC 152, BHI agar, 37°, 20 h, first table",31.2 mg/L
same,MIC,"[11]; S. hemolyticus UC 152, retest table, group (9), (11), (7α), neamine control, read-out: Minimum Inhibitory Concentration",7.8 mg/L
same,MIC,[12],500 mg/L
same,MIC,[13],500 mg/L
same,MIC,"[14]; S. aureus 284 UC 76, BHI agar, 37°, 20 h, first table, read-out: Minimum Inhibitory Concentration",1000 mg/L
same,MIC,"[14]; read-out: Minimum Inhibitory Concentration, S. aureus UC 76, retest table, group (9), (11), (7α), neamine control",62.5 mg/L
same,MIC,"[15]; BHI agar, 37°, 20 h, first table",> 1000 mg/L
same,MIC,"[15]; retest table, group (9), (11), (7α), neamine control",1000 mg/L
same,MIC,[16],500 mg/L
same,MIC,"[17]; D. pneumoniae UC 41, BHI agar, 37°, 20 h, first table, read-out: Minimum Inhibitory Concentration",> 1000 mg/L
same,MIC,"[17]; read-out: Minimum Inhibitory Concentration, D. pneumoniae UC 41, retest table, group (9), (11), (7α), neamine control",125 mg/L
same,MIC,"[18]; E. coli UC 45, BHI agar, 37°, 20 h, first table, read-out: Minimum Inhibitory Concentration",500 mg/L
same,MIC,"[18]; read-out: Minimum Inhibitory Concentration, E. coli UC 45, retest table, group (9), (11), (7α), neamine control",62.5 mg/L
same,MIC,[19],62.5 mg/L
